From PubChem BioAssay (NCI)
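Compound exposure: 48 hours, 5 concentrations, 96-well plates. At the GI50, growth is halved. TGI: concentration producing complete growth inhibition.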

Assays:
Assay in all cases: NCI tumour cell line growth inhibition, 48 h
DMS 114 small cell lung = tested on: DMS 114 small cell lung
HOP-18 NSCLC = tested on: HOP-18 NSCLC
KM20L2 colon = tested on: KM20L2 colon
M19-MEL melanoma = tested on: M19-MEL melanoma
RXF-631 renal = tested on: RXF-631 renal
XF 498 CNS = tested on: XF 498 CNS
DMS 273 small cell lung = tested on: DMS 273 small cell lung
MDA-N = tested on: MDA-N
SNB-78 CNS = tested on: SNB-78 CNS

SMILES | TGI (DMS 114 small cell lung) [µM] | TGI (HOP-18 NSCLC) [µM] | TGI (KM20L2 colon) [µM] | TGI (M19-MEL melanoma) [µM] | TGI (RXF-631 renal) [µM] | TGI (XF 498 CNS) [µM] | TGI (DMS 273 small cell lung) [µM] | TGI (MDA-N) [µM] | TGI (SNB-78 CNS) [µM] | other results
CC(C(=O)c1ccc(Cl)cc1)C1OC(=O)C(Cl)=C1Cl (centres undefined) | 76.7 | > 100 | > 100 | 52.3 | > 100 | 84.1 | – | – | – | –
O=S(=O)(O)c1cc(N=Nc2cc(S(=O)(=O)O)c3cccnc3c2O)ccc1/C=C/c1ccc(N=Nc2cc(S(=O)(=O)O)c3cccnc3c2O)cc1S(=O)(=O)O | > 100 | > 100 | > 100 | > 100 | > 100 | > 100 | > 100 | > 100 | > 100 | –
CC(C)(C)[Si](C)(C)OCC1C=CC(n2cnc3c(N)ncnc32)O1 (centres undefined) | – | – | – | – | – | – | – | 85.9 | – | –
c1cc[c]([Sn]([S]c2cccc3cccnc23)([S]c2cccc3cccnc23)[c]2ccccc2)cc1 | 0.374 | 0.481 | – | 0.542 | 0.324 | 0.407 | 0.955 | – | 0.68 | GI50 (DMS 114 small cell lung): 0.164 µM; GI50 (DMS 273 small cell lung): 0.293 µM; GI50 (HOP-18 NSCLC): 0.193 µM; GI50 (M19-MEL melanoma): 0.216 µM; GI50 (RXF-631 renal): 0.159 µM; GI50 (SNB-78 CNS): 0.224 µM; GI50 (XF 498 CNS): 0.155 µM
CCCCCC(O)(CCCCC)CCCCCCCCC1=C(O)c2[nH]c(=O)ccc2C(=O)C1=O | 16.5 | – | 27.9 | 13.8 | 23.8 | 16 | 12.6 | – | 57.8 | –
COc1ccc(/C=C(/C)[N+](=O)[O-])cc1 | – | – | – | – | – | – | – | 5.25 | – | –
CCCCCCCCCCCC(O)=C1C(=O)CC(O)CC1=O (centres undefined) | > 100 | > 100 | > 100 | > 100 | > 100 | > 100 | > 100 | – | > 100 | –
COC(=O)/C(=C/c1ccc(OC)cc1)NC(=O)c1ccccc1 | > 100 | – | > 100 | – | – | – | – | – | – | –
CN1CCN(CCNc2ccc(CO)c3sc4ccccc4c(=O)c23)CC1 | 22.9 | – | 17.7 | 25.7 | – | – | 14.1 | – | – | –
N[C@@H]1CCCC[C@@H]1N.O=C([O-])CN(CP(=O)([O-])[O-])CP(=O)([O-])[O-].[Pt+2] | – | > 100 | > 100 | > 100 | – | > 100 | > 100 | – | > 100 | GI50 (DMS 273 small cell lung): > 100 µM; GI50 (HOP-18 NSCLC): > 100 µM; GI50 (KM20L2 colon): > 100 µM; GI50 (M19-MEL melanoma): > 100 µM; GI50 (SNB-78 CNS): > 100 µM; GI50 (XF 498 CNS): > 100 µM
CC(O)C(O)C(O)C(/C=N\Nc1ccccc1)=N/Nc1ccccc1 (centres undefined) | – | – | – | – | – | – | – | 25.1 | – | –
C#C[C@H](CCCC)OC(=O)N[C@H](C)c1ccccc1 | 81 | > 100 | > 100 | 93.8 | > 100 | > 100 | > 100 | – | > 100 | –
c1cc(-c2cn[nH]c2)cc(-c2cn[nH]c2)c1 | > 100 | – | > 100 | > 100 | > 100 | – | > 100 | – | > 100 | –
COc1cc(Cl)c2c3c(c(C(=O)c4ccccc4)oc13)CCC2 | > 100 | > 100 | > 100 | > 100 | – | > 100 | > 100 | – | > 100 | –
CC1(C)CC(=O)C(=[N+]=[N-])C(=O)C1 | > 100 | – | > 100 | – | – | > 100 | – | – | – | –
NC(Cc1ccnnc1)C(=O)O (centres undefined) | – | – | – | – | – | – | – | > 100 | – | –
CC1CCP(=O)(c2ccccc2)CC1 (centres undefined) | > 100 | – | > 100 | > 100 | > 100 | > 100 | > 100 | – | > 100 | –
O=[N+]([O-])/C=C\c1c[nH]c2ccc(OCc3ccccc3)cc12 | – | – | – | – | – | – | – | 5.56 | – | –
COc1cc(NCC2COc3c(ccc(OC)c3OC)C2=O)c([N+](=O)[O-])cc1OC (centres undefined) | – | – | – | – | – | – | – | > 100 | – | –
